PMC6984391, “Anion carriers as potential treatments for cystic fibrosis: transport in cystic fibrosis cells, and additivity to channel-targeting drugs” (Chemical Science, 2019)

Biological target: T1, Ca^2+-activated Cl^– channel (CaCC) (Homo sapiens, UniProt Q5XXA6)
T1 construct: endogenous in cells; host or cells: CFBE41o- cells stably expressing YFP (YFP-CFBE cells)
T1 sequence (Q5XXA6 1-986): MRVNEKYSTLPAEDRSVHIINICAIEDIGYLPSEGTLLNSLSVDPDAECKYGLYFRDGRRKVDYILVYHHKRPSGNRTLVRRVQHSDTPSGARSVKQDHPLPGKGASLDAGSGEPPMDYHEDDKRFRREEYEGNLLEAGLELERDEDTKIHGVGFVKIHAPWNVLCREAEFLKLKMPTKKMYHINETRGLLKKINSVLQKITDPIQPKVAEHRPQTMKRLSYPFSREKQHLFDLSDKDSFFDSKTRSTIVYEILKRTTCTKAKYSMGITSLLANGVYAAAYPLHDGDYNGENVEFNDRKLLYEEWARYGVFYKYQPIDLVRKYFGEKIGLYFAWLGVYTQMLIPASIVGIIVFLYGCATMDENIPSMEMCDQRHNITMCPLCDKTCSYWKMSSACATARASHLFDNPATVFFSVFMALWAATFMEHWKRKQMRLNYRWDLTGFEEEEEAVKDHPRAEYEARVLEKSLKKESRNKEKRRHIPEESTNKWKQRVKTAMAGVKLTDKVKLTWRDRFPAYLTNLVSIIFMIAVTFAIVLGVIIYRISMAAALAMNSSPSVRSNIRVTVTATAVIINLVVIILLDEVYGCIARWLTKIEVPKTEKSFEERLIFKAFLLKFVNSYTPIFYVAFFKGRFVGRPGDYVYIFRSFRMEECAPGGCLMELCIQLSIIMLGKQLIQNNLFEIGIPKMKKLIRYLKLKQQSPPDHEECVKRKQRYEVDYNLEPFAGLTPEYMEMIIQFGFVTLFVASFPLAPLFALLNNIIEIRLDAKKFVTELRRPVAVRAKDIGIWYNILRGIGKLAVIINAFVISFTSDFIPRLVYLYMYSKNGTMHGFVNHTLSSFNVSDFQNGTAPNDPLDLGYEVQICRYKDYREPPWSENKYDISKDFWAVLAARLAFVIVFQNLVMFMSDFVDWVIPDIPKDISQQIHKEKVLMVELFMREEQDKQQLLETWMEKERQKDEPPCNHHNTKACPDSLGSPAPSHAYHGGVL
Assay: CaCC-mediated anion transport in YFP-CFBE cells
Type: cell-based
Settings: UTP 1 mM; CaCCinh-A01 10 μM
Procedure: (for chemical structure, see ESI Fig. S15 ^†).
the PBS bathing cells 10 minutes prior to PBS iodide addition, whereas UTP was added to cells with the PBS iodide solution. Fluorescence was measured for 14 seconds; 2 seconds before and 12 seconds after injection of 110 l PBS iodide solution (137 mM Cl- replaced by I-) into each well (to obtain a final concentration of I- of 100 mM).
We expressed cell fluorescence values (F) relative to the fluorescence value immediately before I- injection (F0), excluding the initial decrease, which likely represents the quenching of extracellular YFP released from cells and signal reduction accompanying the increase in solution volume bathing cells. To quantify anion transport by test anionophores, we determined the initial slope of the fluorescence decay following I - addition by fitting first order exponential functions to the last 12 seconds of each fluorescence recording. […]
fluorescence microscopy as described previously.10 In brief, YFP-FRT cells were washed 3x with PBS before transfer to a perfusion chamber mounted on the stage of a Leica DM IRB microscope. […] Any anionophore not incorporated into YFP-FRT cell membranes was removed from the chamber by perfusion with PBS when fluorescence measurements commenced. […]
Fluorescence quenching by the anionophore vehicle DMSO was subtracted from each test measurement. […]

effect on CaCC activity: activated little CaCC activity
Structure (SMILES): O=c1ccn([C@@H]2O[C@H](COP(=O)(O)OP(=O)(O)OP(=O)(O)O)[C@@H](O)[C@H]2O)c(=O)[nH]1 [UTP]
